Results taken from publication PMC6356585 (Viruses, 2018).
Counter-ions that a name gives are not always drawn. Like-named read-outs stand apart in the source and are kept apart here. Residues, ends and D or L forms follow the SMILES beside them. *: point of attachment. Cbz = O=C(OCc1ccccc1)*

Experiments:
[1] = test system: Vero cells; test: Cell viability (CellTiter-Glo) of Vero cells; format: cell-based
[2] = test system: ZIKV SPH; test: Autophagy compound library screen, ZIKV SPH titer (TCID50) in Vero cells; format: cell-based, Zika virus; settings: for activity at 10 µM: Zika virus, Vero, read-out: ZIKV SPH Relative Titer in Vero Cells
[3] = test system: C6/36 cells; format: cell-based, Ae. albopictus
[4] = test system: ZIKV SPH; test: Autophagy compound library screen, ZIKV SPH titer (TCID50) in C6/36 cells; format: cell-based, Zika virus; settings: for activity at 10 µM: Zika virus, read-out: ZIKV SPH Relative Titer in C6/36 Cells
[5] = 10 µM compound, MOI 0.1, 40 h, TCID50, ± SEM, three independent trials
[6] = 10 µM compound, MOI 0.1, 96 h, TCID50, ± SEM, three independent trials
[7] = C6/36, 10 µM compound, MOI 0.1, 96 h, TCID50, ± SEM, three independent trials
[8] = 10 µM compound, 96 h, CellTiter-Glo, ± SEM, three independent trials
[9] = 10 µM compound, 40 h, CellTiter-Glo, ± SEM, three independent trials

Molecule | Vero Viability ([1]; 10 µM) | ZIKV SPH Relative Titer in Vero Cells [2, 5] | C6/36 Viability ([3]; 10 µM) | ZIKV SPH Relative Titer in C6/36 Cells [4, 6] | activity at 10 µM [4, 7] | C6/36 Viability [3, 8] | activity at 10 µM [2, 5] | Vero Viability [1, 9] | activity at 10 µM ([2]; 40 h) | activity at 10 µM ([4]; C6/36, 96 h)
OC[C@H]1O[C@H](O[C@H]2O[C@H](CO)[C@@H](O)[C@H](O)[C@H]2O)[C@H](O)[C@@H](O)[C@@H]1O [Trehalose] | 97.7 ± 1.5% of untreated control | not able to reduce ZIKV titers | 99 ± 2.9% of untreated control | not able to reduce ZIKV titers | 246 ± 101% |  |  |  |  | 
NS(=O)(=O)C#Cc1ccccc1 [Pifithrin-µ] | 49.0 ± 15% of untreated control | 38.5 ± 12.4% of untreated control |  | 75.3 ± 27.5% of untreated control |  | 72 ± 3.2% of untreated control |  |  |  | 
O=C1NCN(c2ccccc2)C12CCN(CCCC(c1ccc(F)cc1)c1ccc(F)cc1)CC2 [Fluspirilene] | 56.7 ± 16% of untreated control |  |  |  | 1 ± 0.7% | 26 ± 10.3% of untreated control | 2.5 ± 0.6% |  |  | 
Cl.O=C(NCc1ccncc1)C12CC3C[C@H](C1)CC(c1ccc(Cl)cc1)(C3)C2 [ABC294640·HCl] | 87.7 ± 6.8% of untreated control | 51.7 ± 29.2% of untreated control |  | 26.0 ± 10.8% of untreated control |  | 32 ± 3.5% of untreated control |  |  |  | 
COC(=O)Nc1nc2ccc(C(=O)c3cccs3)cc2[nH]1 [Nocodazole] | 56.0 ± 9.6% of untreated control |  | 58 ± 2.9% of untreated control |  | 182 ± 39.5% |  | 28.4 ± 23.9% |  |  | 
CNCCCN1c2ccccc2CCc2ccc(Cl)cc21.Cl [Norclomipramine HCl] |  | 3.9 ± 0.5% of untreated control |  | 13.4 ± 8.7% of untreated control |  | 19 ± 8.9% of untreated control |  | 48.7 ± 22.9% of untreated control |  | 
CCCCCCCCCCCCCCC[C@@H](O)[C@H](CO)NC(C)=O [C2-dihydroceramide] | 101.3 ± 3.7% of untreated control | 36.5 ± 3% of untreated control |  | 262.1 ± 51.7% of untreated control |  | 97 ± 5.8% of untreated control |  |  |  | 
Cc1cccc(Nc2nc(-c3ccncc3)cs2)c1 [STF-62247] |  | 45.0 ± 21.4% of untreated control |  | 169.8 ± 45.9% of untreated control |  | 49 ± 9.3% of untreated control |  | 77.3 ± 11.7% of untreated control |  | 
CNc1ccc2oc(C[C@H]3O[C@@]4(CC[C@H]3C)O[C@H]([C@H](C)C(=O)c3ccc[nH]3)[C@H](C)C[C@H]4C)nc2c1C(=O)O [Compound A23187, A23187] |  | 0.5 ± 0.5% of untreated control |  | 0.0 ± 0% of untreated control |  | 1 ± 0% of untreated control |  | 17.0 ± 6.7% of untreated control |  | 
O[C@@H](CS)[C@@H](O)CS [DTT] |  | 60.2 ± 20.1% of untreated control |  | 145.7 ± 16.6% of untreated control |  | 79 ± 4.4% of untreated control |  | 93.0 ± 1.5% of untreated control |  | 
NC(=O)c1ncn([C@@H]2O[C@H](CO)[C@@H](O)[C@H]2O)c1N [AICAR] |  | 112.3 ± 32.3% of untreated control |  | 252.0 ± 115% of untreated control |  | 125 ± 16.4% of untreated control |  | 90.0 ± 11.1% of untreated control |  | 
C[C@H](CCC(=O)O)C[C@H](C)C[C@H](C)C(=O)/C=C(\O)[C@H](C)C[C@H](C)C/C=C/[C@@H](C)[C@@H](O)[C@@H](C)[C@@H](O)C[C@@H]1CC[C@@](C)([C@H]2CC[C@@](C)([C@@H](C)O)O2)O1 [Ionomycin] |  |  |  |  | 0% | 1 ± 0.3% of untreated control | 0% | 27.7 ± 10.4% of untreated control |  | 
C=CCNC1=C2C[C@@H](C)C[C@H](OC)[C@H](O)[C@@H](C)/C=C(\C)[C@H](OC(N)=O)[C@@H](OC)/C=C\C=C(/C)C(=O)NC(=CC1=O)C2=O [Compound 17-AAG, 17-AAG] |  | 36.4 ± 20.8% of untreated control |  | 18.2 ± 11.2% of untreated control |  | 79 ± 16.4% of untreated control |  |  |  | 
CN(C)CCCn1cc(C2=C(c3c[nH]c4ccccc34)C(=O)NC2=O)c2ccccc21 [Go6850] |  | 1.3 ± 0.9% of untreated control |  | 1.4 ± 1.4% of untreated control |  | 21 ± 0% of untreated control |  | 36.0 ± 9% of untreated control |  | 
C[C@H](CCC(=O)[O-])[C@H]1CC[C@H]2[C@@H]3CC[C@@H]4C[C@H](O)CC[C@]4(C)[C@H]3C[C@H](O)[C@]12C.[Na+] [Deoxycholate·Na] | 95.3 ± 2.6% of untreated control | 76.6 ± 16.6% of untreated control |  | 90.6 ± 12.5% of untreated control |  | 83 ± 1% of untreated control |  |  |  | 
N#CC(C#N)=C(N)/C(C#N)=C/c1ccc(O)cc1 [AG112] |  | 77.7 ± 38.2% of untreated control |  | 85.5 ± 21.3% of untreated control |  | 80 ± 5.8% of untreated control |  | 96.7 ± 3.7% of untreated control |  | 

Molecule | Vero Viability ([1]; 10 µM) | ZIKV SPH Relative Titer in Vero Cells [2, 5] | C6/36 Viability ([3]; 10 µM) | ZIKV SPH Relative Titer in C6/36 Cells [4, 6] | activity at 10 µM [4, 7] | C6/36 Viability [3, 8] | activity at 10 µM [2, 5] | Vero Viability [1, 9] | activity at 10 µM ([2]; 40 h) | activity at 10 µM ([4]; C6/36, 96 h)
COc1cccc(-c2cc(=O)c3ccccc3o2)c1N [PD-98059] |  | 101.0 ± 23.3% of untreated control |  | 197.3 ± 40% of untreated control |  | 93 ± 8.4% of untreated control |  | 90.7 ± 1.3% of untreated control |  | 
CCN(CC)CCCCN1c2ccccc2Oc2ccc(Cl)cc21.Cl [Akt Inhibitor X·HCl] | 32.3 ± 14.2% of untreated control | 3.5 ± 3.3% of untreated control |  | 0.0 ± 0% of untreated control |  | 7 ± 1.9% of untreated control |  |  |  | 
O=C(CC(=O)C(F)(F)F)c1cccs1 [TTFA] |  | 24.4 ± 7.6% of untreated control |  | 72.8 ± 9.6% of untreated control |  | 78 ± 19.9% of untreated control |  | 90.0 ± 3.5% of untreated control |  | 
CC(Oc1ccc(O)cc1)(P(=O)(O)O)P(=O)(O)O [L-690,330] |  | 40.7 ± 10.6% of untreated control |  | 66.8 ± 2.6% of untreated control |  | 87 ± 4.6% of untreated control |  | 93.7 ± 3.5% of untreated control |  | 
Penitrem A |  | 34.9 ± 10.4% of untreated control |  | 29.8 ± 6.4% of untreated control |  |  |  |  |  | 
CN(C)C(=O)C(CCN1CCC(O)(c2ccc(Cl)cc2)CC1)(c1ccccc1)c1ccccc1 [Loperamide HCl] |  |  |  |  | 0.1 ± 0.1% | 12 ± 6.1% of untreated control | 11.7 ± 3.3% | 66.7 ± 17.4% of untreated control |  | 
[Cl-].[Li+] [Lithium Chloride] |  | 85.4 ± 18.7% of untreated control |  | 167.9 ± 68.4% of untreated control |  | 111 ± 10.7% of untreated control |  | 87.0 ± 1% of untreated control |  | 
COC[C@H]1OC(=O)c2coc3c2[C@@]1(C)C1=C(C3=O)[C@@H]2CCC(=O)[C@@]2(C)C[C@H]1OC(C)=O [Wortmannin] |  |  | 105 ± 5.5% of untreated control |  |  |  |  | 79.0 ± 3.1% of untreated control | 46.9 ± 9% | 190 ± 57.8%
C1COC(NC(C2CC2)C2CC2)=N1 [Rilmenidine] | 97.0 ± 2% of untreated control |  | 79 ± 8.3% of untreated control |  | 161 ± 58.1% |  |  |  |  | 
COc1cc(/C=C/C(=O)CC(=O)/C=C/c2ccc(O)c(OC)c2)ccc1O [Curcumin] | 75.3 ± 11.3% of untreated control |  |  |  | 0.3 ± 0.2% | 3 ± 0.7% of untreated control |  |  |  | 
CC(C)C[C@@H](C=O)NC(=O)[C@H](CC(C)C)NC(=O)[C@H](CC(C)C)NC(=O)OCc1ccccc1 [MG132] (Cbz-Leu-Leu-Leu-aldehyde) | 10.7 ± 2.8% of untreated control |  |  |  | 9.5 ± 7.1% | 31 ± 5.7% of untreated control |  |  |  | 
CC1=CC(=O)c2c(O)cccc2C1=O [Plumbagin] | 2.0 ± 0% of untreated control |  | 49 ± 1.5% of untreated control |  | 21.4 ± 17.5% |  |  |  |  | 
C/C=C(/C)C(=O)O[C@H]1C(C)=C2[C@H]([C@@H]1OC(=O)CCCCCCC)[C@@](C)(OC(C)=O)C[C@H](OC(=O)CCC)[C@@]1(O)[C@H]2OC(=O)[C@@]1(C)O [Thapsigargin] | 38.0 ± 10.5% of untreated control |  | 23 ± 3.9% of untreated control |  | 0% |  |  |  |  | 
C[C@H]1O[C@@H](n2cnc3c(N)ncnc32)C[C@@H]1O [2′,5′-Dideoxyadenosine] |  |  |  |  | 317 ± 162% | 118 ± 15% of untreated control |  | 95.0 ± 1.5% of untreated control |  | 
CCCC(CCC)C(=O)O [Sodium Valproate] | 92.7 ± 1.2% of untreated control |  |  |  | 111 ± 20.7% | 111 ± 6.2% of untreated control |  |  |  | 
